Laboratory results: the supplement of paper PMC10307832

Legend:
Assay in all cases: relative viability (nuclei count vs DMSO), 5 days (fraction); higher = more cells survive
[1] = compound: Cn1c(Nc2ccc(C(F)(F)F)cc2)nc2cc(Oc3ccnc(-c4ncc(C(F)(F)F)[nH]4)c3)ccc21 [RAF265] + Cc1nc(NC(=O)N2CCC[C@H]2C(N)=O)sc1-c1ccnc(C(C)(C)C(F)(F)F)c1 [Alpelisib] (partner 2 µM)
Summary of the method: (§1)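 Relative viability equals treated-well nuclei counts divided by vehicle-well nuclei counts. Counts came from 4× images of lung cancer cell lines grown in 1536-well plates for 5 days after pin-tool dosing on the day after seeding. Dosing used one drug alone or a fixed anchor-drug dose plus five library-drug doses (not always all listed) in √10 steps, and values are medians of duplicate plates.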

[2] = compound: Cn1c(Nc2ccc(C(F)(F)F)cc2)nc2cc(Oc3ccnc(-c4ncc(C(F)(F)F)[nH]4)c3)ccc21 [RAF265] + COc1cccc2cc(-c3nc([C@H]4CC[C@H](C(=O)O)CC4)n4ncnc(N)c34)[nH]c12 [OSI-027] (partner 0.5 µM)
Summary of the method: as §1

[3] = compound: Cn1c(Nc2ccc(C(F)(F)F)cc2)nc2cc(Oc3ccnc(-c4ncc(C(F)(F)F)[nH]4)c3)ccc21 [RAF265] + C[C@@H](Oc1cc(-c2cnn(C3CCNCC3)c2)cnc1N)c1c(Cl)ccc(F)c1Cl [Crizotinib] (partner 1 µM)
Summary of the method: as §1

[4] = compound: Cn1c(Nc2ccc(C(F)(F)F)cc2)nc2cc(Oc3ccnc(-c4ncc(C(F)(F)F)[nH]4)c3)ccc21 [RAF265] + COc1cc2c(Oc3ccc(NC(=O)C4(C(=O)Nc5ccc(F)cc5)CC4)cc3F)ccnc2cc1OCCCN1CCOCC1 [Foretinib] (partner 0.25 µM)
Summary of the method: as §1

Cell Line | relative viability ([1]; first compound 0.01 µM) | relative viability ([1]; first compound 0.1 µM) | relative viability ([1]; first compound 0.3162 µM) | relative viability ([1]; first compound 1 µM) | relative viability ([2]; first compound 0.01 µM) | relative viability ([2]; first compound 0.03162 µM) | relative viability ([2]; first compound 0.1 µM) | relative viability ([2]; first compound 0.3162 µM) | relative viability ([2]; first compound 1 µM) | relative viability ([3]; first compound 0.01 µM) | relative viability ([3]; first compound 0.1 µM) | relative viability ([3]; first compound 0.3162 µM) | relative viability ([3]; first compound 1 µM) | relative viability ([4]; first compound 0.01 µM) | relative viability ([4]; first compound 0.03162 µM) | relative viability ([4]; first compound 0.1 µM) | relative viability ([4]; first compound 0.3162 µM) | relative viability ([4]; first compound 1 µM) | relative viability ([1]; first compound 0.03162 µM) | relative viability ([3]; first compound 0.03162 µM)
HOP-62 | 0.966 | 0.948 | 1.07 | 0.58 | 0.807 | 0.774 | 0.698 | 0.731 | 0.631 | 0.972 | 0.714 | 0.772 | 0.629 | 1.14 | 0.979 | 0.973 | 1.04 | 0.852 |  | 
LC-2-ad | 0.771 | 0.724 | 0.35 | 0.202 | 0.969 | 0.798 | 0.902 | 0.442 | 0.378 | 0.451 | 0.492 | 0.474 | 0.305 | 1.22 | 0.921 | 0.94 | 0.863 | 0.645 | 0.727 | 0.442
LCLC-97TM1 | 0.274 | 0.2 | 0.144 | 0.125 | 0.516 | 0.328 | 0.215 | 0.416 | 0.0767 | 0.355 | 0.293 | 0.181 | 0.121 | 0.993 | 0.811 | 0.967 | 0.811 | 0.448 | 0.194 | 0.274
LCLC-103H | 0.862 | 0.854 | 0.745 | 0.461 | 0.466 | 0.439 | 0.464 | 0.443 | 0.308 | 1.06 | 1.07 | 1 | 0.713 | 0.802 | 0.587 | 0.645 | 0.504 | 0.39 | 1.02 | 1.05
LK-2 | 1.07 | 1.18 | 0.655 | 0.778 | 0.212 | 0.202 | 0.176 | 0.177 | 0.203 | 0.203 | 0.239 | 0.237 | 0.223 | 1.07 | 1.13 | 0.952 | 1.05 | 0.862 | 1.08 | 0.222
LOU-NH91 | 0.747 | 0.739 | 0.557 | 0.495 | 0.703 | 0.653 | 0.737 | 0.45 | 0.486 | 0.758 | 0.752 | 0.529 | 0.59 | 1.04 | 0.845 | 0.954 | 0.582 | 0.71 | 0.667 | 0.728
LU99A | 0.474 | 0.347 | 0.252 | 0.21 | 0.299 | 0.274 | 0.27 | 0.258 | 0.205 | 0.576 | 0.521 | 0.344 | 0.255 | 0.837 | 0.745 | 0.624 | 0.522 | 0.332 | 0.384 | 0.467
LXF-289 | 1.06 | 1 | 0.79 | 0.75 | 0.836 | 0.813 | 0.59 | 0.326 | 0.2 | 0.849 | 0.872 | 0.677 | 0.684 | 0.999 | 0.986 | 0.938 | 0.875 | 0.709 | 0.965 | 0.81
